The pIC50 is the IC50 on a negative log10 scale, so that one unit is a factor of ten. What is called logP is the decadic logarithm of the partition coefficient of the neutral form, usually between octanol and water.

Results on 5 compounds are retold here after ChEMBL document CHEMBL3593218, “4,6-Substituted-1,3,5-triazin-2(1H)-ones as monocyclic catalytic inhibitors of human DNA topoisomerase IIα targeting the ATP binding site” (Bioorg Med Chem, 2015).

SMILES strings stand for the structures. pIC50: −log10 of the molar value. Several values for one entry are separate records, joined by “and”; a condition that tells them apart may be missing. Equal values may be shown once.

Data set [1] deals with T1, DNA topoisomerase 2-alpha (Homo sapiens, UniProt P11388). Kind of data set: Inhibition of human DNA topoisomerase IIalpha assessed as decatenation of kDNA at 62.5 uM after 90 mins by ethidium bromide staining. Further details: scale not given: the % may be the effect or the level left.
T1 sequence (P11388 whole entry): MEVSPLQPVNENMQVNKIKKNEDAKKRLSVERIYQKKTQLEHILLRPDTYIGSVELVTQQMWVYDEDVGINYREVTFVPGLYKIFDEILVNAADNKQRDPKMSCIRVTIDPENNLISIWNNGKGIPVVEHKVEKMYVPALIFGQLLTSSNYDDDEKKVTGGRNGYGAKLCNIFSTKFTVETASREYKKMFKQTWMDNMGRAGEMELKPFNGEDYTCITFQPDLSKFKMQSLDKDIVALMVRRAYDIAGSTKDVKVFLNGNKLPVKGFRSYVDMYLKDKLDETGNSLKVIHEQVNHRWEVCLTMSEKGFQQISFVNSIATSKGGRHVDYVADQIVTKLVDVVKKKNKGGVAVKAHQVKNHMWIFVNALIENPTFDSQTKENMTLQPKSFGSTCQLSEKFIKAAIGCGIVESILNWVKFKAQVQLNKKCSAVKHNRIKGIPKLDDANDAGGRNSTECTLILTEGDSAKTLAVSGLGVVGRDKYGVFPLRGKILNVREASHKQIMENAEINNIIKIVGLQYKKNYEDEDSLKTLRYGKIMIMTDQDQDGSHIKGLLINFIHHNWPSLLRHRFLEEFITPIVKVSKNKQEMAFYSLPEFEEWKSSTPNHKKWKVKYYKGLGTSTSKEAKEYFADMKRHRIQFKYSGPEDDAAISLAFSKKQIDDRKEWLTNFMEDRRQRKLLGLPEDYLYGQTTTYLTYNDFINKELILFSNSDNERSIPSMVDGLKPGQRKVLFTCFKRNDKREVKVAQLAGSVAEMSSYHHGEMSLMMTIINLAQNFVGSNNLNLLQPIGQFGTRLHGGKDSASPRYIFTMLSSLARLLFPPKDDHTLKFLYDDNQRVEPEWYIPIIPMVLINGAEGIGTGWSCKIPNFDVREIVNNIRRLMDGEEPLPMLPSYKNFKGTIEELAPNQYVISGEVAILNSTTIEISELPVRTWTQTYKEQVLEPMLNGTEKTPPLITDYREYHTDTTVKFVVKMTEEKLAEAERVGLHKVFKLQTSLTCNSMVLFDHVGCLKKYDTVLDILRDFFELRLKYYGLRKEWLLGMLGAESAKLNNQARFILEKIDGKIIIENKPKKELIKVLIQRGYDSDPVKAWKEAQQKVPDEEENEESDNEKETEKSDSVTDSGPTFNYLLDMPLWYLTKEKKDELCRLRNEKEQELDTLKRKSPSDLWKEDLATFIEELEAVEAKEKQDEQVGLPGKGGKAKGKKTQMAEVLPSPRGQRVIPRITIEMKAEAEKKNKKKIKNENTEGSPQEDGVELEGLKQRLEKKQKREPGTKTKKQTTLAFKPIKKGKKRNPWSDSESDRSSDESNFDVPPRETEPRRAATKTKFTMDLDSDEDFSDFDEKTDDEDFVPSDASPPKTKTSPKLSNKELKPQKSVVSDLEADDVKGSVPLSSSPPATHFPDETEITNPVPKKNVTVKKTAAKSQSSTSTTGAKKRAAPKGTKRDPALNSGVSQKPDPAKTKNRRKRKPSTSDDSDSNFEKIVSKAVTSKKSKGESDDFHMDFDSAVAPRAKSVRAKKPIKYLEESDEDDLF
In data set [2] the target is T1, DNA topoisomerase 2-alpha. Kind of data set: Inhibition of human DNA topoisomerase IIalpha ATPase activity assessed as residual ATP hydrolysis at 62.5 uM measured up to 60 mins.
Data set [3] has as its target T1, DNA topoisomerase 2-alpha. Kind of data set: Inhibition of human DNA topoisomerase IIalpha ATPase activity assessed as residual ATP hydrolysis at 500 uM measured up to 60 mins.
Data set [4] has as its target T1, DNA topoisomerase 2-alpha. Kind of data set: Inhibition of human DNA topoisomerase IIalpha assessed as reduction in enzyme-catalyzed supercoiling of relaxed circular pBR322 DNA by measuring linear DNA level at 3.9 uM after 60 mins by agarose gel electrophoresis. Further details: scale not given: the % may be the effect or the level left.
The target of data set [5] is T1, DNA topoisomerase 2-alpha. Kind of data set: Inhibition of human DNA topoisomerase IIalpha assessed as reduction in enzyme-catalyzed supercoiling of relaxed circular pBR322 DNA by measuring linear DNA level at 31.5 uM after 60 mins by agarose gel electrophoresis. Also on record: scale not given: the % may be the effect or the level left.
The target of data set [6] is T1, DNA topoisomerase 2-alpha. Kind of data set: Inhibition of human DNA topoisomerase IIalpha assessed as reduction in enzyme-catalyzed supercoiling of relaxed circular pBR322 DNA by measuring linear DNA level at 15.625 uM after 60 mins by agarose gel electrophoresis. Further details: scale not given: the % may be the effect or the level left.
Data set [7] concerns the target T1, DNA topoisomerase 2-alpha. Kind of data set: Inhibition of human DNA topoisomerase IIalpha ATPase activity assessed as residual ATP hydrolysis at 3.9 uM measured up to 60 mins.
For data set [8], the target named is T1, DNA topoisomerase 2-alpha. Kind of data set: Inhibition of human DNA topoisomerase IIalpha assessed as decatenation of kDNA at 3.9 uM after 90 mins by ethidium bromide staining. Further details: scale not given: the % may be the effect or the level left.
Data set [9] addresses T1, DNA topoisomerase 2-alpha. Kind of data set: Inhibition of human DNA topoisomerase IIalpha assessed as reduction in enzyme-catalyzed supercoiling of relaxed circular pBR322 DNA by measuring linear DNA level at 62.5 uM after 60 mins by agarose gel electrophoresis. Further details: scale not given: the % may be the effect or the level left.
The target in data set [10] is T1, DNA topoisomerase 2-alpha. Kind of data set: Inhibition of human DNA topoisomerase IIalpha assessed as decatenation of kDNA at 31.5 uM after 90 mins by ethidium bromide staining. Further details: scale not given: the % may be the effect or the level left.
Data set [11] deals with T1, DNA topoisomerase 2-alpha. Kind of data set: Inhibition of human DNA topoisomerase IIalpha assessed as decatenation of kDNA at 15.625 uM after 90 mins by ethidium bromide staining. Also on record: scale not given: the % may be the effect or the level left.
Data set [12] addresses T1, DNA topoisomerase 2-alpha. Kind of data set: Inhibition of human DNA topoisomerase IIalpha ATPase activity assessed as residual ATP hydrolysis at 15.625 uM measured up to 60 mins.
Data set [13] concerns the target T1, DNA topoisomerase 2-alpha. Kind of data set: Inhibition of human DNA topoisomerase IIalpha ATPase activity assessed as residual ATP hydrolysis at 31.5 uM measured up to 60 mins.
Data set [14] addresses T1, DNA topoisomerase 2-alpha. Kind of data set: Inhibition of human DNA topoisomerase IIalpha using plasmid pNO1 as a substrate after 30 mins.
Data set [15] concerns the target T1, DNA topoisomerase 2-alpha. Kind of data set: Inhibition of human DNA topoisomerase IIalpha assessed as reduction in enzyme-catalyzed supercoiling of relaxed circular pBR322 DNA by measuring linear DNA level at 125 uM after 60 mins by agarose gel electrophoresis. Also on record: scale not given: the % may be the effect or the level left.
For data set [16], the target named is T1, DNA topoisomerase 2-alpha. Kind of data set: Inhibition of human DNA topoisomerase IIalpha assessed as reduction in enzyme-catalyzed supercoiling of relaxed circular pBR322 DNA by measuring linear DNA level at 125 uM after 60 mins by agarose gel electrophoresis in presence of 50 uM of etoposide. Also on record: scale not given: the % may be the effect or the level left.

For data set [17], the target named is T1, DNA topoisomerase 2-alpha. Kind of data set: Inhibition of human DNA topoisomerase IIalpha assessed as reduction in enzyme-catalyzed supercoiling of relaxed circular pBR322 DNA by measuring linear DNA level at 3.9 uM after 60 mins by agarose gel electrophoresis in presence of 50 uM of etoposide. Further details: scale not given: the % may be the effect or the level left.

Data set [18] concerns the target T1, DNA topoisomerase 2-alpha. Kind of data set: Inhibition of human DNA topoisomerase IIalpha assessed as reduction in enzyme-catalyzed supercoiling of relaxed circular pBR322 DNA by measuring linear DNA level at 500 uM after 60 mins by agarose gel electrophoresis. Further details: scale not given: the % may be the effect or the level left.
Data set [19] concerns the target T1, DNA topoisomerase 2-alpha. Kind of data set: Inhibition of human DNA topoisomerase IIalpha assessed as decatenation of kDNA at 500 uM after 90 mins by ethidium bromide staining. Also on record: scale not given: the % may be the effect or the level left.
The target in data set [20] is T1, DNA topoisomerase 2-alpha. Kind of data set: Inhibition of human DNA topoisomerase IIalpha assessed as reduction in enzyme-catalyzed supercoiling of relaxed circular pBR322 DNA by measuring linear DNA level after 60 mins by agarose gel electrophoresis.
Data set [21] deals with T1, DNA topoisomerase 2-alpha. Kind of data set: Inhibition of human DNA topoisomerase IIalpha assessed as reduction in enzyme-catalyzed supercoiling of relaxed circular pBR322 DNA by measuring linear DNA level at 31.5 uM after 60 mins by agarose gel electrophoresis in presence of 50 uM of etoposide. Further details: scale not given: the % may be the effect or the level left.

A short description of data set [22]: Lipophilicity, log P of the compound. The conditions noted are these: octanol/water. It is filed as physicochemical.
The target in data set [23] is T1, DNA topoisomerase 2-alpha. Kind of data set: Inhibition of human DNA topoisomerase IIalpha assessed as reduction in enzyme-catalyzed supercoiling of relaxed circular pBR322 DNA by measuring linear DNA level at 500 uM after 60 mins by agarose gel electrophoresis in presence of 50 uM of etoposide. Further details: scale not given: the % may be the effect or the level left.

Data set [24] addresses T1, DNA topoisomerase 2-alpha. Kind of data set: Inhibition of human DNA topoisomerase IIalpha assessed as decatenation of kDNA at 125 uM after 90 mins by ethidium bromide staining. Also on record: scale not given: the % may be the effect or the level left.
The target of data set [25] is T1, DNA topoisomerase 2-alpha. Kind of data set: Inhibition of human DNA topoisomerase IIalpha assessed as decatenation of kDNA after 90 mins by ethidium bromide staining.
The target in data set [26] is T1, DNA topoisomerase 2-alpha. Kind of data set: Inhibition of human DNA topoisomerase IIalpha ATPase activity assessed as residual ATP hydrolysis at 125 uM measured up to 60 mins.
Data set [27] concerns the target T1, DNA topoisomerase 2-alpha. Kind of data set: Inhibition of human DNA topoisomerase IIalpha assessed as reduction in enzyme-catalyzed supercoiling of relaxed circular pBR322 DNA by measuring linear DNA level at 50 uM after 60 mins by agarose gel electrophoresis. Also on record: scale not given: the % may be the effect or the level left.

For `CC(C(C)N1CC(=O)NC(=O)C1)N1CC(=O)NC(=O)C1` (stereo not drawn), the Activity was 6.05% in [1]; 0% in [2]; 0% and 18.7% in [3]; 1.7% in data set [4]; 2.51% in data set [5]; 3.1% in [6]. Besides, the Activity in data set [7] was found to be 0%; in data set [8], 77.4%; in data set [9], 2.1%; in data set [10], 10.8%; in data set [11], 18.2%; in data set [12] it was 0%. In addition, the Activity in [13] was 0%.

For `O=c1nc(SCc2ccccc2)nc(SCc2cccc(Cl)c2)[nH]1`, the Activity is 6.05% in data set [1]; 4.4% in data set [4]; 3.5% in data set [15]; 9.2% in data set [16]; 34.3% in data set [17]; 1.2% in data set [5]. Moreover, the Activity in data set [18] came to 2.5%; in [19], 0%; in data set [8], 87.3%; in [21] it was 33.5%; in data set [10] it was 33.9%; in data set [11], 18.2%. The results for the Activity in data set [23] and in [24] were 5.3% and 0%, respectively. This compound had a pIC50 in [14] of 4.26. In addition, the inhibition result in data set [20] and in data set [25] was “Dose-dependent effect” throughout. Also, in data set [22], the logP amounted to 3.3.

With `COc1cc([C@@H]2c3cc4c(cc3[C@@H](O[C@@H]3O[C@@H]5CO[C@@H](C)O[C@H]5[C@H](O)[C@H]3O)[C@H]3COC(=O)[C@H]23)OCO4)cc(OC)c1O`, the Activity was 18.7% in data set [3]; 31.8% in data set [26]; 12.4% in data set [4]; 36.1% in [15]; 34.3% in data set [5]; 34.6% in [27]. Moreover, the Activity was 32.5% in data set [18]; 65.4% in [7]; 3.25% in [19]; 88.3% in data set [8]; 18.1% in data set [9]; 68.8% in data set [10]. Also, the Activity is 14.2% in data set [24] and 45.8% in [13].

Take `O=c1nc(SCc2ccccc2)nc(SCc2ccccc2Cl)[nH]1`: the pIC50 in data set [14] was 4.03. The same compound displayed a logP in data set [22] of 3.3.

Turning to `O=c1nc(-c2ccccc2)nc(S)[nH]1`, in [14], the pIC50 is less than 3.00.
